# Data: paper PMC7490411 (Signal Transduction and Targeted Therapy, 2020)
# Key:
# LKB1 = assay: KINOMEscan; type: binding; conditions: 1000 nM
# PAK3 = assay: KINOMEscan; type: binding; conditions: 1000 nM
# FLT3(N841I) = assay: KINOMEscan; type: binding; conditions: 1000 nM
# JNK3 = assay: KINOMEscan; type: binding; conditions: 1000 nM
# KIT(V559D,V654A) = assay: KINOMEscan; type: binding; conditions: 1000 nM
# Mino cells = assay: NK-cell-mediated ADCC, LDH release cytotoxicity assay, Rituximab; type: cell-based, human
# Experimental: The cytotoxicity of NK cells was measured using the CyQUANT™ LDH Cytotoxicity Assay Kit (Invitrogen™, #C20300) according to the manufacturer’s instructions. Briefly, enriched NK cells (6 × 10^5 /ml) were cultured with the same volume of Mino cell and SK-OV-3 cell (1-2 × 10^4 /ml) in a 96-well plate for 4 h with Rituximab and Herceptin (10 μg/mL) and CHMFL-BTK-85 or PCI32765 at 37°C in a humidified CO2 incubator prior to removal of the supernatant for lactate dehydrogenase (LDH) release measurements. Calculate % Cytotoxicity by using the following formula: %Cytotoxicity = (Compound-treated LDH activity-Spontaneous LDH activity)/(Maximum LDH activity-Spontaneous LDH activity)*100.
# PIK3CA(E545A) = assay: KINOMEscan; type: binding; conditions: 1000 nM
# RET(V804M) = assay: KINOMEscan; type: binding; conditions: 1000 nM
# DCAMKL1 = assay: KINOMEscan; type: binding; conditions: 1000 nM
# DLK = assay: KINOMEscan; type: binding; conditions: 1000 nM
# GRK2 = assay: KINOMEscan; type: binding; conditions: 1000 nM
# NEK9 = assay: KINOMEscan; type: binding; conditions: 1000 nM
# TGFBR1 = assay: KINOMEscan; type: binding; conditions: 1000 nM
# SNRK = assay: KINOMEscan; type: binding; conditions: 1000 nM
# ZAK = assay: KINOMEscan; type: binding; conditions: 1000 nM
# [1] = test system: RPS6KA4(Kin.Dom.2-C-terminal); assay: KINOMEscan; type: binding; conditions: 1000 nM
# NDR2 = assay: KINOMEscan; type: binding; conditions: 1000 nM
# MARK4 = assay: KINOMEscan; type: binding; conditions: 1000 nM
# EPHB1 = assay: KINOMEscan; type: binding; conditions: 1000 nM
# TAK1 = assay: KINOMEscan; type: binding; conditions: 1000 nM
# RIOK3 = assay: KINOMEscan; type: binding; conditions: 1000 nM
# KIT(D816H) = assay: KINOMEscan; type: binding; conditions: 1000 nM
# [2] = test system: ABL1(E255K)-phosphorylated; assay: KINOMEscan; type: binding; conditions: 1000 nM
# CAMK1G = assay: KINOMEscan; type: binding; conditions: 1000 nM
# RIPK4 = assay: KINOMEscan; type: binding; conditions: 1000 nM
# SIK2 = assay: KINOMEscan; type: binding; conditions: 1000 nM
# PCTK3 = assay: KINOMEscan; type: binding; conditions: 1000 nM
# FLT3(K663Q) = assay: KINOMEscan; type: binding; conditions: 1000 nM
# YSK4 = assay: KINOMEscan; type: binding; conditions: 1000 nM
# NEK2 = assay: KINOMEscan; type: binding; conditions: 1000 nM
# DRAK2 = assay: KINOMEscan; type: binding; conditions: 1000 nM
# [3] = drug enrichment in the tumor; type: in vivo, mouse; conditions: 100 mg/kg
# [4] = test system: RPS6KA4(Kin.Dom.1-N-terminal); assay: KINOMEscan; type: binding; conditions: 1000 nM
# PFTK1 = assay: KINOMEscan; type: binding; conditions: 1000 nM
# MARK1 = assay: KINOMEscan; type: binding; conditions: 1000 nM
# TNK2 = assay: KINOMEscan; type: binding; conditions: 1000 nM
# CDK4-cyclinD1 = assay: KINOMEscan; type: binding; conditions: 1000 nM
# TYRO3 = assay: KINOMEscan; type: binding; conditions: 1000 nM
# ERK5 = assay: KINOMEscan; type: binding; conditions: 1000 nM
# CSK = assay: KINOMEscan; type: binding; conditions: 1000 nM
# PIK3CB = assay: KINOMEscan; type: binding; conditions: 1000 nM
# CLK3 = assay: KINOMEscan; type: binding; conditions: 1000 nM
# p38-gamma = assay: KINOMEscan; type: binding; conditions: 1000 nM
# MLCK = assay: KINOMEscan; type: binding; conditions: 1000 nM
# MKK7 = assay: KINOMEscan; type: binding; conditions: 1000 nM
# GCN2(Kin.Dom.2,S808G) = assay: KINOMEscan; type: binding; conditions: 1000 nM
# CDC2L5 = assay: KINOMEscan; type: binding; conditions: 1000 nM
# SRPK2 = assay: KINOMEscan; type: binding; conditions: 1000 nM
# TSSK1B = assay: KINOMEscan; type: binding; conditions: 1000 nM
# CAMKK1 = assay: KINOMEscan; type: binding; conditions: 1000 nM
# SBK1 = assay: KINOMEscan; type: binding; conditions: 1000 nM
# [5] = test system: ABL1(Q252H)-phosphorylated; assay: KINOMEscan; type: binding; conditions: 1000 nM
# RIPK2 = assay: KINOMEscan; type: binding; conditions: 1000 nM
smiles,measurement,setting,value
C=CC(=O)Nc1cc(Nc2cc(-c3cccc(NC(=O)c4cc5c(s4)CCCC5)c3C)cn(C)c2=O)ccc1N1CCN(CC)CC1 [CHMFL-BTK-85],Percent Control,LKB1,92%
same,Percent Control,PAK3,100%
same,Percent Control,FLT3(N841I),83%
same,Percent Control,JNK3,98%
same,Percent Control,"KIT(V559D,V654A)",100%
same,effect on antibody-dependent NK-cell-mediated cytotoxicity (ADCC),Mino cells,did not affect
same,Percent Control,PIK3CA(E545A),65%
same,Percent Control,RET(V804M),68%
same,Percent Control,DCAMKL1,100%
same,Percent Control,DLK,100%
same,Percent Control,GRK2,100%
same,Percent Control,NEK9,100%
same,Percent Control,TGFBR1,88%
same,Percent Control,SNRK,86%
same,Percent Control,ZAK,99%
same,Percent Control,[1],100%
same,Percent Control,NDR2,34%
same,Percent Control,MARK4,66%
same,Percent Control,EPHB1,100%
same,Percent Control,TAK1,100%
same,Percent Control,RIOK3,100%
same,Percent Control,KIT(D816H),100%
same,Percent Control,[2],85%
same,Percent Control,CAMK1G,94%
same,Percent Control,RIPK4,100%
same,Percent Control,SIK2,83%
same,Percent Control,PCTK3,86%
same,Percent Control,FLT3(K663Q),100%
same,Percent Control,YSK4,100%
same,Percent Control,NEK2,99%
same,Percent Control,DRAK2,100%
same,concentration in the tumor,[3],2.37 µM
same,Percent Control,[4],87%
same,Percent Control,PFTK1,80%
same,Percent Control,MARK1,100%
same,Percent Control,TNK2,64%
same,Percent Control,CDK4-cyclinD1,100%
same,Percent Control,TYRO3,97%
same,Percent Control,ERK5,100%
same,Percent Control,CSK,80%
same,Percent Control,PIK3CB,94%
same,Percent Control,CLK3,80%
same,Percent Control,p38-gamma,62%
same,Percent Control,MLCK,100%
same,Percent Control,MKK7,99%
same,Percent Control,"GCN2(Kin.Dom.2,S808G)",75%
same,Percent Control,CDC2L5,100%
same,Percent Control,SRPK2,100%
same,Percent Control,TSSK1B,88%
same,Percent Control,CAMKK1,75%
same,Percent Control,SBK1,100%
same,Percent Control,[5],96%
same,Percent Control,RIPK2,94%
